Laboratory results published in ChEMBL document CHEMBL3044726, “Synthesis and Acaricidal Activities of New Benzophenone O-Methyloximes” (2001).
Values after ≈ are worked out from the molar mass of the structure shown.

What was measured:
Format in all cases: functional
Tetranychus urticae [1] = assay: Acaricidal activity against Tetranychus urticae (two-spotted spider mite) in two-leaf stage of kidney bean leaf surface at 500 ppm after 6 hr relative to control
Tetranychus urticae [2] = assay: Acaricidal activity against Tetranychus urticae (two-spotted spider mite) in two-leaf stage of kidney bean leaf surface at 62.5 ppm after 6 hr relative to control
Tetranychus urticae [3] = assay: Acaricidal activity against Tetranychus urticae (two-spotted spider mite) in two-leaf stage of kidney bean leaf surface at 250 ppm after 6 hr relative to control
Tetranychus urticae [4] = assay: Acaricidal activity against Tetranychus urticae (two-spotted spider mite) in two-leaf stage of kidney bean leaf surface at 15.6 ppm after 6 hr relative to control
Tetranychus urticae [5] = assay: Acaricidal activity against Tetranychus urticae (two-spotted spider mite) in kidney bean leaf surface after 48 hr
Tetranychus kanzawai = assay: Acaricidal activity against Tetranychus kanzawai in kidney bean leaf surface after 48 hr

CO/N=C(/c1ccccc1)c1ccccc1COc1ccc(C(F)(F)F)cn1
Activity (Tetranychus urticae [1]): 0%

CO/N=C(/c1ccc(Cl)cc1)c1ccccc1COc1ccccc1C(F)(F)F
Activity (Tetranychus urticae [1]): 0%

CO/N=C(/c1ccc(Cl)cc1)c1ccccc1COc1nnc(C(F)(F)F)s1
Activity (Tetranychus urticae [1]): 0%

CO/N=C(/c1ccc(Br)cc1)c1ccccc1COc1ccc(C(F)(F)F)cn1
Activity (Tetranychus urticae [2]): 95%
Activity (Tetranychus urticae [3]): 95%
Activity (Tetranychus urticae [4]): 70%
Activity (Tetranychus urticae [1]): 95%

CO/N=C(/c1ccc(Cl)cc1)c1ccccc1OCc1ccc(C(F)(F)F)cc1
Activity (Tetranychus urticae [1]): 0%

CO/N=C(/c1ccc(Cl)cc1)c1ccccc1COc1ccc(C(C)(C)C)cc1
Activity (Tetranychus urticae [1]): 0%

CO/N=C(/c1ccc(Cl)cc1)c1ccccc1COc1ccc(C)cc1
Activity (Tetranychus urticae [1]): 0%

CC(C)(C)c1ccc(CSc2cnn(C(C)(C)C)c(=O)c2Cl)cc1 [PYRIDABEN]
LC50 (Tetranychus urticae [5]): 34.5 µg/mL (≈ 94.5 µM)
LC50 (Tetranychus kanzawai): 33.7 µg/mL (≈ 92.3 µM)

CO/N=C(/c1ccc(Cl)cc1)c1ccccc1COc1cccc(Cl)c1
Activity (Tetranychus urticae [1]): 0%

CO/N=C(/c1ccccc1Cl)c1ccccc1COc1ccc(C(F)(F)F)cn1
Activity (Tetranychus urticae [1]): 0%

CO/N=C(/c1ccc(C#N)cc1)c1ccccc1COc1ccc(C(F)(F)F)cn1
Activity (Tetranychus urticae [2]): 70%
Activity (Tetranychus urticae [3]): 95%
Activity (Tetranychus urticae [4]): 0%
Activity (Tetranychus urticae [1]): 95%

CO/N=C(\c1ccc(F)cc1)c1ccccc1COc1ccc(C(F)(F)F)cc1
Activity (Tetranychus urticae [1]): 70%

CO/N=C(/c1ccc(Cl)cc1)c1ccccc1COc1ccc(C(F)(F)F)cn1
LC50 (Tetranychus urticae [5]): 16.4 µg/mL (≈ 39 µM)
Activity (Tetranychus urticae [2]): 95%
LC50 (Tetranychus kanzawai): 9 µg/mL (≈ 21.4 µM)
Activity (Tetranychus urticae [3]): 95%
Activity (Tetranychus urticae [4]): 95%
Activity (Tetranychus urticae [1]): 95%

CO/N=C(/c1ccc(Cl)cc1)c1ccccc1COc1ncc(C(F)(F)F)cc1Cl
Activity (Tetranychus urticae [1]): 0%

CO/N=C(/c1cccc(Cl)c1)c1ccccc1COc1ccc(C(F)(F)F)cn1
Activity (Tetranychus urticae [1]): 0%

CO/N=C(/c1ccc(Cl)cc1)c1ccccc1COc1ccc(OC(F)(F)F)cc1
Activity (Tetranychus urticae [1]): 0%

CO/N=C(/c1ccc(C)cc1)c1ccccc1COc1ccc(C(F)(F)F)cn1
Activity (Tetranychus urticae [1]): 0%

CO/N=C(/c1cccc(F)c1)c1ccccc1COc1ccc(C(F)(F)F)cn1
Activity (Tetranychus urticae [1]): 70%

CO/N=C(/c1ccc(F)cc1)c1ccccc1COc1ccc(C(F)(F)F)cn1
Activity (Tetranychus urticae [2]): 70%
Activity (Tetranychus urticae [3]): 95%
Activity (Tetranychus urticae [4]): 0%
Activity (Tetranychus urticae [1]): 95%

CO/N=C(/c1ccc(Cl)cc1)c1ccccc1COc1ncccc1C(F)(F)F
Activity (Tetranychus urticae [1]): 0%

CO/N=C(/c1ccc(Cl)cc1)c1ccccc1COc1ccc(C(F)(F)F)cc1
Activity (Tetranychus urticae [2]): 0%
Activity (Tetranychus urticae [3]): 95%
Activity (Tetranychus urticae [1]): 95%

CO/N=C(/c1ccc(Cl)cc1)c1ccccc1Oc1ccc(C(F)(F)F)cc1
Activity (Tetranychus urticae [1]): 0%

CO/N=C(/c1ccc(Cl)cc1)c1ccccc1COc1ccccc1Cl
Activity (Tetranychus urticae [1]): 0%

CO/N=C(/c1ccc(Cl)cc1)c1ccccc1COc1ccc(Cl)cc1
Activity (Tetranychus urticae [1]): 0%

CON=C(c1ccc(F)cc1)c1ccc(COc2ccc(C(F)(F)F)cc2)cc1
Activity (Tetranychus urticae [1]): 0%

CO/N=C(/c1ccc(Cl)cc1)c1ccccc1COc1ccc(-c2ccccc2)cc1
Activity (Tetranychus urticae [1]): 0%

CO/N=C(/c1ccc(Cl)cc1)c1ccccc1COc1cccc(C(F)(F)F)c1
Activity (Tetranychus urticae [1]): 0%

CO/N=C(\c1ccc(Cl)cc1)c1ccccc1COc1ccc(C(F)(F)F)cc1
Activity (Tetranychus urticae [3]): 70%
Activity (Tetranychus urticae [1]): 95%

CO/N=C(/c1ccc(OC(F)(F)F)cc1)c1ccccc1COc1ccc(C(F)(F)F)cn1
Activity (Tetranychus urticae [2]): 70%
Activity (Tetranychus urticae [3]): 70%
Activity (Tetranychus urticae [4]): 0%
Activity (Tetranychus urticae [1]): 95%

CON=C(c1ccc(Cl)cc1)c1cccc(COc2ccc(C(F)(F)F)cc2)c1
Activity (Tetranychus urticae [1]): 0%

CO/N=C(/c1ccc(Oc2ccccc2)cc1)c1ccccc1COc1ccc(C(F)(F)F)cn1
Activity (Tetranychus urticae [1]): 0%

CON=C(c1ccccc1F)c1ccccc1COc1ccc(C(F)(F)F)cn1
Activity (Tetranychus urticae [1]): 0%

CO/N=C(/c1ccc(Cl)cc1)c1ccccc1COc1ccccc1
Activity (Tetranychus urticae [1]): 0%

CO/N=C(/c1ccc(-c2ccccc2)cc1)c1ccccc1COc1ccc(C(F)(F)F)cn1
Activity (Tetranychus urticae [1]): 0%

CO/N=C(/c1ccc(F)cc1)c1ccccc1COc1ccc(C(F)(F)F)cc1
Activity (Tetranychus urticae [3]): 0%
Activity (Tetranychus urticae [1]): 95%

CON=C(c1ccc(F)cc1)c1cccc(COc2ccc(C(F)(F)F)cc2)c1
Activity (Tetranychus urticae [1]): 0%

CO/N=C(/c1ccc([N+](=O)[O-])cc1)c1ccccc1COc1ccc(C(F)(F)F)cn1
Activity (Tetranychus urticae [2]): 70%
Activity (Tetranychus urticae [3]): 95%
Activity (Tetranychus urticae [4]): 0%
Activity (Tetranychus urticae [1]): 95%

CON=C(c1ccc(Cl)cc1)c1ccc(COc2ccc(C(F)(F)F)cc2)cc1
Activity (Tetranychus urticae [1]): 0%

CO/N=C(/c1ccc(OC)cc1)c1ccccc1COc1ccc(C(F)(F)F)cn1
Activity (Tetranychus urticae [1]): 0%

CO/N=C(/c1ccc(C(F)(F)F)cc1)c1ccccc1COc1ccc(C(F)(F)F)cn1
LC50 (Tetranychus urticae [5]): 24.8 µg/mL (≈ 54.6 µM)
Activity (Tetranychus urticae [2]): 95%
LC50 (Tetranychus kanzawai): 7.2 µg/mL (≈ 15.8 µM)
Activity (Tetranychus urticae [3]): 95%
Activity (Tetranychus urticae [4]): 70%
Activity (Tetranychus urticae [1]): 95%
